Measurements taken from patent US20230062119A1, “USE OF BIOMARKERS IN IDENTIFYING PATIENTS THAT WILL BE RESPONSIVE TO TREATMENT WITH A PRMT5 INHIBITOR” (Merck Sharp & Dohme LLC, priority 2019, published 2023).
pEC50: −log10 of the molar value.

What follows are compounds tested against T1, Full-length (FL)-PRMT5-MEP50 enzyme complex (Homo sapiens, UniProt O14744) (assay: PRMT5-MEP50 Enzyme Methylation Assay). Conditions: one EC50: 4 parameters single site sigmoidal model; EC50 1: first value of 7 parameters biphasic model; 1.0 nM PRMT5-MEP50, 75 nM biotinylated peptide, 15 μM SAM; read-out: Enzyme Methylation Assay (EC50 or EC50 1).
T1 construct: Full-length (FL)-PRMT5-MEP50 enzyme complex (recombinant proteins from baculovirus-transfected Sf21 cells: FL-PRMT5; MW=73837 kDa and FL-MEP50; MW=38614); made in house; host or cells: baculovirus-transfected Sf21 insect cells
Format: biochemical
Procedure: PRMT5-MEP50 biochemical assay is a direct measurement of the methylation activity of the enzyme complex on a short peptide substrate derived from the N-terminus of H4 histone. Methylation experiment is performed with recombinant PRMT5-MEP50 protein complex. The assessment of inhibitory effect of small molecules is measured by the effectiveness of the compounds to inhibit this reaction (EC50).
In this assay, the potency (EC50) of each compound was determined from a twenty-point (1:2 serial dilution; top compound concentration of 100000 nM) titration curve using the following outlined procedure. To each well of a white ProxiPlus 384 well-plate, 100 nL of compound (1% DMSO in final assay volume of 10 μL) was dispensed, followed by the addition of 8 μL of 1× assay buffer (50 mM Bicine pH 8.0, 1 mM DTT, 0.004% Tween20, 0.01% BSA) containing 1.25 nM of Full-length (FL)-PRMT5-MEP50 enzyme complex (recombinant proteins from baculovirus-transfected Sf21 cells: FL-PRMT5; MW=[…] and FL-MEP50; MW=38614) and 1 μL of 150 μM S-(5′-Adenosyl)-L-Methionine Chloride (SAM). Plates were sealed and placed in a 37° C. humidified chamber for a 60 minutes pre-incubation with compound. Subsequently, each reaction was initiated by the addition of 1 μL 1× assay buffer containing 750 nM biotinylated H4R3(Mel) peptide. The final reaction in each well of 10 μL consists of 1.0 nM PRMT5-MEP50, 75 nM biotinylated-peptide, and 15 μM SAM. Methylation reactions proceeded for 150 minutes in a sealed plate at 37° C. Reactions were immediately quenched by the addition of 1 μL of 5% formic acid. Plates were then frozen and shipped to SAMDI™ Tech Inc. to determine the percent conversion from H4R3(Mel) to H4R3(Me2). Dose-response curves were generated by plotting percent effect (% product conversion; Y-axis) vs. Log 10 compound concentrations (X-axis). EC50 values were determined by non-linear regression according to models for either sigmoidal (4 parameters) or biphasic (7 parameters) dose-response curves.

T1 sequence (O14744 whole entry): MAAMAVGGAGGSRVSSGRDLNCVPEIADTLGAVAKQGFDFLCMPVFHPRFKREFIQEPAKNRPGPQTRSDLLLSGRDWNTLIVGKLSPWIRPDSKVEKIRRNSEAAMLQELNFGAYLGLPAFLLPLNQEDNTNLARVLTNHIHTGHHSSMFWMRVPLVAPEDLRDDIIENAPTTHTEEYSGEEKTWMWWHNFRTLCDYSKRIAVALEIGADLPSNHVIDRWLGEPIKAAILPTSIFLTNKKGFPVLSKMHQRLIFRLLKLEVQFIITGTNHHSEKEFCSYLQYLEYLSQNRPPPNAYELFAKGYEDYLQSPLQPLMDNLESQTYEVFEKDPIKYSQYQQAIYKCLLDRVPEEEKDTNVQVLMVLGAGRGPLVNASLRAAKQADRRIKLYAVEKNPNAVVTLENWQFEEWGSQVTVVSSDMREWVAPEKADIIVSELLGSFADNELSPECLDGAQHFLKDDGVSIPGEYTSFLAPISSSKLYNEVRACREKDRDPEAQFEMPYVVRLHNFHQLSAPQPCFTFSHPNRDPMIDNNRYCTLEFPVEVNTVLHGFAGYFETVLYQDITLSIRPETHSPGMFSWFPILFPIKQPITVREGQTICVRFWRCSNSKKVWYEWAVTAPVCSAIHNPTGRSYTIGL
T1 sequence (Q9BQA1 whole entry partner): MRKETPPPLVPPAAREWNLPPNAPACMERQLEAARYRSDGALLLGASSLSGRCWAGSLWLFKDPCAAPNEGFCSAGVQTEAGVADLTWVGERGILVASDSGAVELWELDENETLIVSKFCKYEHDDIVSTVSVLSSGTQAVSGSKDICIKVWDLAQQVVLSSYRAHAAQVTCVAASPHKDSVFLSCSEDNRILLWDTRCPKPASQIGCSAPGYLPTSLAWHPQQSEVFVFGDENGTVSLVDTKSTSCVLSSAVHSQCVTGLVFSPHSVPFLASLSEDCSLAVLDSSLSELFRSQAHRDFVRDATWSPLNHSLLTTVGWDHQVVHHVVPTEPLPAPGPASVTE

With `Nc1nc2cc(C[C@@H]3CC[C@@]4(O)[C@@H]3O[C@@H](n3ccc5c(N)nc(Cl)nc53)[C@@H]4O)ccc2cc1Cl` [Example 47, (2R,3R,3aS,6S,6aR)-2-(4-amino-2-chloro-7H-pyrrolo[2,3-d]pyrimidin-7-yl)-6-[(2-amino-3-chloroquinolin-7-yl)methyl]hexahydro-3aH-cyclopenta[b]furan-3,3a-diol] as the compound, how does the pEC50 read?
The pEC50 was 9.70.

How did the pEC50 turn out when `Nc1nc2cc(C[C@@H]3CC[C@@]4(O)[C@@H]3O[C@@H](n3ccc5c(C6CC6)ncnc53)[C@@H]4O)ccc2cc1Br` [Example 87, (2R,3R,3aS,6S,6aR)-6-((2-amino-3-bromoquinolin-7-yl)methyl)-2-(4-cyclopropyl-7H-pyrrolo[2,3-d]pyrimidin-7-yl)hexahydro-3aH-cyclopenta[b]furan-3,3a-diol] was run?
Its pEC50 is 9.30.

How did the pEC50 turn out when `Cc1ncnc2c1ccn2[C@@H]1O[C@@H]2[C@H](Cc3ccc4cc(C(F)F)c(N)nc4c3)CC[C@]2(O)[C@H]1O` [Example 23, (2R,3R,3aS,6S,6aR)-6-((2-amino-3-(difluoromethyl)quinolin-7-yl)methyl)-2-(4-methyl-7H-pyrrolo[2,3-d]pyrimidin-7-yl)hexahydro-3aH-cyclopenta[b]furan-3,3a-diol] was run?
The pEC50 was 9.40.

`Nc1nc2cc(O[C@H]3CC[C@@]4(O)[C@@H]3O[C@@H](n3ccc5c(N)ncnc53)[C@@H]4O)ccc2cc1C(F)F` [Example 128, (2R,3R,3aS,6S,6aR)-6-((2-amino-3-(difluoromethyl)quinolin-7-yl)oxy)-2-(4-amino-7H-pyrrolo[2,3-d]pyrimidin-7-yl)hexahydro-3aH-cyclopenta[b]furan-3,3a-diol] was tested. Which pEC50 did it give?
The pEC50 was 9.15.

`Cc1ncnc2c1ccn2[C@@H]1O[C@@H]2[C@H](Cc3ccc4cc(F)c(N)nc4c3)CC[C@]2(O)[C@H]1O` [Example 123, (2R,3R,3aS,6S,6aR)-6-((2-amino-3-fluoroquinolin-7-yl)methyl)-2-(4-methyl-7H-pyrrolo[2,3-d]pyrimidin-7-yl)hexahydro-3aH-cyclopenta[b]furan-3,3a-diol] was tested. Which pEC50 did it give?
Its pEC50 is 9.00.

How did the pEC50 turn out when `Cc1cn([C@@H]2O[C@@H]3[C@H](Cc4ccc5cc(Br)c(N)nc5c4)CC[C@]3(O)[C@H]2O)c2ncnc(N)c12` [Example 70, (2R,3R,3aS,6S,6aR)-6-((2-amino-3-bromoquinolin-7-yl)methyl)-2-(4-amino-5-methyl-7H-pyrrolo[2,3-d]pyrimidin-7-yl)hexahydro-3aH-cyclopenta[b]furan-3,3a-diol 2,2,2-trifluoroacetate] was run?
The pEC50 was 9.40.

With `Nc1ccc2ccc(O[C@H]3CC[C@@]4(O)[C@@H]3O[C@@H](n3ccc5c(N)ncnc53)[C@@H]4O)cc2n1` [Example 104, (2R,3R,3aS,6S,6aR)-2-(4-amino-7H-pyrrolo[2,3-d]pyrimidin-7-yl)-6-((2-aminoquinolin-7-yl)oxy)hexahydro-2H-cyclopenta[b]furan-3,3a-diol] as the compound, how does the pEC50 read?
The pEC50 was 8.42.

How did the pEC50 turn out when `C[C@@]1(O)[C@@H](COc2ccc3cc(Br)c(N)nc3c2)O[C@@H](n2ccc3c(Cl)ncnc32)[C@@H]1O` [Example 11, (2R,3S,4R,5R)-2-{[(2-amino-3-bromoquinolin-7-yl)oxy]methyl}-5-(4-chloro-7H-pyrrolo[2,3-d]pyrimidin-7-yl)-3-methyltetrahydrofuran-3,4-diol] was run?
The pEC50 was 9.05.

How did the pEC50 turn out when `C[C@]12O[C@@H](n3ccc4c(N)ncnc43)[C@H](O)[C@@]1(O)CC[C@H]2Cc1ccc2cc(F)c(N)nc2c1` [Example 121, (2R,3R,3aS,6S,6aR)-6-((2-amino-3-fluoroquinolin-7-yl)methyl)-2-(4-amino-7H-pyrrolo[2,3-d]pyrimidin-7-yl)-6a-methylhexahydro-3aH-cyclopenta[b]furan-3,3a-diol] was run?
The pEC50 was 9.40.

`Cc1cc2ccc(C[C@@H]3CC[C@@]4(O)[C@@H]3O[C@@H](n3ccc5c(N)ncnc53)[C@@H]4O)cc2nc1N` [Example 125, (2R,3R,3aS,6S,6aR)-6-((2-amino-3-methylquinolin-7-yl)methyl)-2-(4-amino-7H-pyrrolo[2,3-d]pyrimidin-7-yl)hexahydro-3aH-cyclopenta[b]furan-3,3a-diol] was tested. Which pEC50 did it give?
Its pEC50 is 9.10.

`Nc1nc2cc(C[C@@H]3CC[C@@]4(O)[C@@H]3O[C@@H](n3cc(F)c5c(N)ncnc53)[C@@H]4O)ccc2cc1Cl` [Example 68, (2R,3R,3aS,6S,6aR)-6-((2-amino-3-chloroquinolin-7-yl)methyl)-2-(4-amino-5-fluoro-7H-pyrrolo[2,3-d]pyrimidin-7-yl)hexahydro-3aH-cyclopenta[b]furan-3,3a-diol] was tested. Which pEC50 did it give?
The pEC50 was 9.30.

How did the pEC50 turn out when `C[C@@]1(O)[C@@H](COc2ccc3cc(Br)c(N)nc3c2)O[C@@H](n2ccc3c(N)ncnc32)[C@@H]1O` [Example 10, (2R,3S,4R,5R)-2-(((2-amino-3-bromoquinolin-7-yl)oxy)methyl)-5-(4-amino-7H-pyrrolo[2,3-d]pyrimidin-7-yl)-3-methyltetrahydrofuran-3,4-diol] was run?
The pEC50 was 9.30.

With `Cc1ncnc2c1ccn2[C@@H]1O[C@@H]2[C@H](Cc3ccc4cc(C(F)(F)F)c(N)nc4c3)CC[C@]2(O)[C@H]1O` [Example 88, (2R,3R,3aS,6S,6aR)-6-((2-amino-3-(trifluoromethyl)quinolin-7-yl)methyl)-2-(4-methyl-7H-pyrrolo[2,3-d]pyrimidin-7-yl)hexahydro-3aH-cyclopenta[b]furan-3,3a-diol] as the compound, how does the pEC50 read?
The pEC50 was 9.70.

With `C[C@]1(COc2ccc3ccc(N)nc3c2)C[C@@H](n2ccc3c(N)ncnc32)[C@H](O)[C@@H]1O` [Example 101, (1S,2R,3R,5R)-5-(4-amino-7H-pyrrolo[2,3-d]pyrimidin-7-yl)-3-(((2-aminoquinolin-7-yl)oxy)methyl)-3-methylcyclopentane-1,2-diol] as the compound, how does the pEC50 read?
Its pEC50 is 9.52.

`Nc1nc2cc(C[C@@H]3CC[C@@]4(O)[C@@H]3O[C@@H](n3cc(F)c5c(N)ncnc53)[C@@H]4O)cc(F)c2cc1F` [Example 24, (2R,3R,3aS,6S,6aR)-6-((2-amino-3,5-difluoroquinolin-7-yl)methyl)-2-(4-amino-5-fluoro-7H-pyrrolo[2,3-d]pyrimidin-7-yl)hexahydro-3aH-cyclopenta[b]furan-3,3a-diol] was tested. Which pEC50 did it give?
Its pEC50 is 9.40.

`Cc1cn([C@@H]2C[C@@H]3[C@H](Cc4cc(F)c5cc(Cl)c(N)nc5c4)CC[C@]3(O)[C@H]2O)c2ncnc(N)c12` [Example 36, (1S,2R,3aR,4S,6aR)-4-[(2-amino-3-chloro-5-fluoroquinolin-7-yl)methyl]-2-(4-amino-5-methyl-7H-pyrrolo[2,3-d]pyrimidin-7-yl)hexahydropentalene-1,6a(1H)-diol] was tested. Which pEC50 did it give?
Its pEC50 is 9.30.

`C[C@@]1(CCc2ccc3cc(F)c(N)nc3c2)C[C@@H](n2ccc3c(N)ncnc32)[C@H](O)[C@@H]1O` [Example 116, (1S,2R,3R,5R)-3-(2-(2-amino-3-fluoroquinolin-7-yl)ethyl)-5-(4-amino-7H-pyrrolo[2,3-d]pyrimidin-7-yl)-3-methylcyclopentane-1,2-diol] was tested. Which pEC50 did it give?
The pEC50 was 8.62.

`CC(C)(O)c1ncnc2c1ccn2[C@@H]1O[C@@H]2[C@@H](Oc3ccc4cc(Br)c(N)nc4c3)CC[C@]2(O)[C@H]1O` [Example 78, (2R,3R,3aS,6S,6aR)-6-[(2-amino-3-bromoquinolin-7-yl)oxy]-2-[4-(2-hydroxypropan-2-yl)-7H-pyrrolo[2,3-d]pyrimidin-7-yl]hexahydro-3aH-cyclopenta[b]furan-3,3a-diol] was tested. Which pEC50 did it give?
Its pEC50 is 7.88.

With `Nc1nc2cc(O[C@H]3CC[C@@]4(O)[C@@H]3O[C@@H](n3cc(F)c5c(N)ncnc53)[C@@H]4O)ccc2cc1F` [Example 73, (2R,3R,3aS,6S,6aR)-6-((2-amino-3-fluoroquinolin-7-yl)oxy)-2-(4-amino-5-fluoro-7H-pyrrolo[2,3-d]pyrimidin-7-yl)hexahydro-3aH-cyclopenta[b]furan-3,3a-diol] as the compound, how does the pEC50 read?
The pEC50 was 9.40.

With `C[C@]1(CCc2ccc3cc(Br)c(N)nc3c2)C[C@@H](n2ccc3c(N)ncnc32)[C@H](O)[C@@H]1O` [Example 15, (1S,2R,3S,5R)-3-[2-(2-amino-3-bromo-7-quinolinyl)ethyl]-5-(4-amino-7H-pyrrolo[2,3-d]pyrimidin-7-yl)-3-methyl-1,2-cyclopentanediol] as the compound, how does the pEC50 read?
Its pEC50 is 9.10.

`Nc1ncnc2c1ccn2[C@@H]1O[C@@H]2[C@@H](Oc3ccc4cc5c(nc4c3)NCC5)CC[C@]2(O)[C@H]1O` [Example 75, (2R,3R,3aS,6S,6aR)-2-(4-amino-7H-pyrrolo[2,3-d]pyrimidin-7-yl)-6-((2,3-dihydro-1H-pyrrolo[2,3-b]quinolin-7-yl)oxy)hexahydro-3aH-cyclopenta[b]furan-3,3a-diol] was tested. Which pEC50 did it give?
Its pEC50 is 9.15.

Same assay, conditions: second EC50 of 7 parameters biphasic model; 1.0 nM PRMT5-MEP50, 75 nM biotinylated peptide, 15 μM SAM; read-out: Enzyme Methylation Assay (EC50 2)

How did the pEC50 turn out when `C[C@@]1(O)[C@@H](COc2ccc3cc(Br)c(N)nc3c2)O[C@@H](n2ccc3c(Cl)ncnc32)[C@@H]1O` [Example 11, (2R,3S,4R,5R)-2-{[(2-amino-3-bromoquinolin-7-yl)oxy]methyl}-5-(4-chloro-7H-pyrrolo[2,3-d]pyrimidin-7-yl)-3-methyltetrahydrofuran-3,4-diol] was run?
Its pEC50 is 6.30.

`C[C@@]1(O)[C@@H](COc2ccc3cc(Br)c(N)nc3c2)O[C@@H](n2ccc3c(N)ncnc32)[C@@H]1O` [Example 10, (2R,3S,4R,5R)-2-(((2-amino-3-bromoquinolin-7-yl)oxy)methyl)-5-(4-amino-7H-pyrrolo[2,3-d]pyrimidin-7-yl)-3-methyltetrahydrofuran-3,4-diol] was tested. Which pEC50 did it give?
Its pEC50 is 7.66.

How did the pEC50 turn out when `C[C@@]1(CCc2ccc3cc(F)c(N)nc3c2)C[C@@H](n2ccc3c(N)ncnc32)[C@H](O)[C@@H]1O` [Example 116, (1S,2R,3R,5R)-3-(2-(2-amino-3-fluoroquinolin-7-yl)ethyl)-5-(4-amino-7H-pyrrolo[2,3-d]pyrimidin-7-yl)-3-methylcyclopentane-1,2-diol] was run?
The pEC50 was 6.18.
